The source of these data is patent US10071983B2, “Activatable fluorogenic compounds and uses thereof as near infrared probes” (Ramot at Tel-Aviv University Ltd., priority 2011, dated 2018).

SMILES strings stand for the structures. Several values for one entry are separate records, joined by “and”; a condition that tells them apart may be missing. Equal entries are not always repeated.

A short description of data set [1]: NIR fluorescence emission spectrum of dye compounds. Type of data set: physicochemical. To be noted: PBS 7.4 [50 μM], excitation 570 nm, cutting filter >690 nm.
Data set [2] is described as follows: Extinction coefficient calculation (absorbance vs concentration). Type of data set: physicochemical. The source says:
FIG. 7 presents linear plots of QCy7 as measured at 1 cm cuvette, at the indicated concentrations in PBS 7.4, at the maximum wavelength of QCy7 (560 nm). εQCy7=26848[M^−1cm^−1]
FIG. 10 presents linear plots of Sulfo-QCy7 as measured at 1 cm cuvette, at the indicated concentrations in PBS 7.4, at the maximum wavelength of Sulfo-QCy7 (590 nm). εSulfo-QCy7=52235[M^−1cm^−1]

Data set [3] concerns HeLa cells. Kind of data set: Cell permeability, confocal imaging of HeLa cells. Type of data set: cell-based. The procedure:
HeLa cells were incubated overnight with Compound 9 in PBS 7.4, and the cells was thereafter imaged by confocal microscope.
A colocalization assay of Compound 25 was conducted with the lysosome marker lysosensor. Sample was excited with a 561 nm laser line and fluorescence acquired from 570 nm to 800 nm.

A short description of data set [4]: NIR fluorescence emission spectrum of dye compounds. Type of data set: physicochemical. The following applies: for fluorescence emission peak in the NIR region: PBS 7.4; for λmax: Table 1, λmax (fluorescence emission). The source says: (§1) Compound 1 (which generates the dye compound QCy7 deprotonation) was obtained as an orange crystalline powder. FIGS. 4A and 4B present the UV-Vis spectrum of Compound 1 (FIG. 4A), compared to that of the acetate Compound 3 (FIG. 4B). […] The obtained large stokes shift between the excitation and the emission wavelengths of about 150 nm is a desirable feature for fluorescence probes, which assists in increasing the signal-to-noise ratio.
(§2) FIG. 5 presents the data obtained for fluorescence intensity vs. wavelength of standard sample (Cresyl violet; FIG. 5A), and test sample (QCy7; FIG. 5B), at the indicated concentrations. The measurements were performed in a 1 cm cuvette using Fluoromax-3 fluorometer; at an excitation wavelength of 560 nm. Cresyl violet was dissolved in methanol and Compound 1 in PBS 7.4 (just generating QCy7).
(§3) FIG. 8 presents the data obtained for fluorescence intensity vs. wavelength of standard sample (QCy7; FIG. 8A), and test sample (Sulfo-QCy7, generated from Compound 9; FIG. 8B), at the indicated concentrations. The measurements were performed at a 96-wells plate reader using Fluoromax-3 fluorometer; at an excitation wavelength of 560 nm. Both samples were dissolved in PBS 7.4.

Data set [5] in a line: Fluorescence quantum yield calculation against a reference dye. Type of data set: physicochemical. The following applies: PBS 7.4. Here is the method:
Cresyl-violet-perchlorate (as presented hereinbelow) was chosen as a reference compound for the determination of QCy7 quantum yield.
as §2
Conversion to the absolute quantum yield is achieved through the following equation: ΦX=ΦST(GradX/GradST)(η^2X/η^2ST) where the subscripts ST and X denote standard and test respectively, Φ is the fluorescence quantum yield, Grad the gradient from the plot of integrated fluorescence intensity vs. absorbance (see, FIG. 6), and η the refractive index of the solvents. ΦCresyl-violet=0.55 [Stefan et al. ([…]) J. Phys. Chem. 86, 1738-1742].
QCy7 was chosen as a reference compound for the determination of Sulfo-QCy7 quantum yield.
as §3
The absolute quantum yield was calculated as described hereinabove and found to be: […]

Data set [6] can be described thus: Aqueous stability in PBS 7.4 at 37° C., NIR emission over 72 hours. Type of data set: physicochemical. To be noted: PBS 7.4 [25 μM]. The procedure:
The aqueous stability of the cyanine-like dye compound presented herein was tested and compared to that of the cyanine molecule Cy7.
All tested compounds were incubated in PBS 7.4 [25 μM], at 37° C., and their NIR fluorescent emission was monitored over 72 hours. FIG. 15 presents the normalized intensity of NIR fluorescent emission of dyes generated from Compound 9 (green circles; Sulfo-QCy7), Compound 14 (blue diamonds), Compound 18 (red squares), Compound 25 (orange triangles) and Compound 1 (blank navy squares; QCy7) as a function of incubation time.

Data set [7] in a line: UV-Vis absorption spectrum of dye compounds. Type of data set: physicochemical.
Excerpt: as §1
Compound 14 is composed from a phenol latent donor and two different acceptors; a picolinium moiety and an indolium moiety (see, Scheme 3). Deprotonation of the phenolic dye leads to formation of new donor-acceptor pair fluorochrome.
Compound 18 is composed of a phenol latent donor and two identical acceptors based on a picolinium moiety (see, Scheme 4). Deprotonation of the phenolic form leads to formation of new donor-acceptor pair fluorochrome.
Compound 25 is composed of a phenol latent donor and three acceptors; two picolinium moieties and one indolium moiety (see, Scheme 5). Deprotonation of the phenolic compound leads to formation of three resonance donor-two-acceptor structures of new fluorochrome.
The chemical 2D structures and spectroscopic data obtained for exemplary dye molecules according to embodiments of the present invention are presented in Table 1.

Data set [8] can be described thus: pKa measurement by UV-Vis absorbance as a function of pH. Type of data set: physicochemical. The following applies: buffers at the indicated pH; 50 μM in buffers, phenol form. Here is the method: The pKa values of exemplary compounds according to some embodiments of the present invention, Compounds 14, 18 and 25, was measured by monitoring their UV-Vis absorbance as a function of the environment pH. The tested compounds, at a concentration of 50 μM were dissolved in the respective buffers at the indicated pH and their absorbance was measured.

Data set [9] has as its system HeLa cells. Kind of data set: Two-photon excitation with NIR laser in HeLa cells. Type of data set: cell-based. To be noted: incubated with HeLa cells and PBS 7.4. Here is the method: Fluorescent dyes, which absorb at wavelengths of 350-550 nm, can be excited in NIR region with a two-photon laser.
Compound 25 was incubated with HeLa cells and PBS 7.4.

The conditions of data set [10]: in methanol; Stefan et al. 1992; cited from earlier work.

`CC1(C)C(/C=C/c2ccc(O)c(/C=C/C3=[N+](CCCS(=O)(=O)[O-])c4ccccc4C3(C)C)c2)=[N+](CCCS(=O)(=O)[O-])c2ccccc21` [Compound 9]: the “appearance under NIR imaging camera” value in data set [1] is given as “exhibits well-observed NIR fluorescence”. Besides, the “extinction coefficient ε” value in data set [2] (PBS 7.4, 1 cm cuvette, at maximum wavelength (QCy7 560 nm, Sulfo-QCy7 590 nm)) was 52235 M⁻¹ cm⁻¹. For the same compound, in [2] (rounded value), the extinction coefficient is on record as 52,000 mol^−1 cm^−1. The “fluorescence inside vs outside the cells” value in the data set on HeLa cells [3] (HeLa cells incubated overnight, PBS 7.4) is on record as “higher fluorescence inside the cells”. In data set [4], the “fluorescence emission peak in the NIR region” value is 720 nm and the λmax worked out at 710 nm. Also, the quantum yield in data set [5] is 16%.

In general, pKa refers to the pH at which an ionisable group is half protonated. High values mean a group that holds its proton tightly, low ones a group that gives up its proton readily. Regarding `C[n+]1ccc(/C=C/c2cc(/C=C/C3=[N+](CCCS(=O)(=O)O)c4ccccc4C3(C)C)cc(/C=C/c3cc[n+](C)cc3)c2O)cc1` [Compound 25], the “aqueous stability compared with Cy7” value in [6] was “increase aqueous stability than that of Cy7”. Also, the “UV-Vis absorption peak maximum” value in [7] (PBS 7.4) was 330 nm and 550 nm. In [7] (Table 1, first λmax column (absorption peaks)), this compound showed a λmax of 550 nm. The “cellular localization (colocalization with lysosensor)” value with HeLa cells [3] (HeLa cells, excitation 561 nm, 570-800 nm) was “accumulation of the dye in the lisosomal vesicles indicates cell-penetration through endocytosis mechanism”. The “chemical stability in cell-medium” value in the data set with HeLa cells [3] (overnight incubation with cells) is listed as “chemical stability after overnight in cell-medium”. Besides, in the data set on HeLa cells [3] (pH of about 5), the “NIR fluorescence under acidic condition of the lysosome” value was “emitted NIR fluorescence even under the acidic condition of the lysosome”. The compound also displayed a pKa in [8] of 5.4. Moreover, in data set [4], the “fluorescence emission peak in the NIR region” value was determined as 680 nm and the λmax is listed as 650 nm. Moreover, the quantum yield in [5] is given as 16%. In addition, the “two-photon excitation spectrum wavelengths” value with HeLa cells [9] is on record as 800-1000 nm.

With `N=c1cc2oc3cc(N)ccc3nc-2c2ccccc12.[O-][Cl+3]([O-])([O-])O` [Cresyl-violet, Cresyl-violet-perchlorate], in data set [10], the “fluorescence quantum yield of reference” value is recorded as 0.55.
